Experimental data taken from patent US11413278B2, “Compounds and methods for promoting stress resistance” (priority 2015, dated 2022).
Where two headings read alike, the source gives them in different places.

Columns and labels:
[1] = test system: phosphorylated γH2A.X and TP53BP1; test: DNA damage marker analysis (immuno-staining); details: for activity at 10 µM: Homo sapiens, WI-38, 24 h
Description: WI-38 cells were seeded on 96-well plates and cultured for 24 hrs and then incubated with small molecules for another 24 hrs. As the positive control to damage DNA, H2O2 was supplemented at 700 μM final concentration for the last 3 hrs. Cells were washed with phosphate-buffered saline (PBS), fixed with 4% paraformaldehyde and then blocked with 5% normal goat serum (Cell Signaling), plus 0.3% Triton X-100, for 1 hr. Primary antibody cocktail (rabbit anti-phospho-histone γH2A.X (Ser-139), 1:100; anti-phospho-TP53BP1 (Ser-1778), 1:100), prepared in 1% BSA and 0.3% Triton X-100/PBS, was then introduced and incubated overnight at 4 C. Next day, samples were washed with PBS and further incubated with fluorophore-conjugated secondary antibody (1:1,000) for 1 hr in the dark. Samples were then washed and incubated with DAPI dye (Life Technologies) (4 μg/ml final concentration) for the last 10 minutes. Images were collected on an INCell Analyzer 2000 (GE) and analyzed with the Developer software.
WI-38 cells were seeded (˜8,000 cells per well) on 96-well plates and cultured for 24 hrs and then incubated with small molecules for another 24 hrs. Doxorubicin (300 nM, 24 hrs) and H2O2 (700 μM, 3 hrs) were also introduced as the positive controls to damage DNA. Cells were washed with phosphate-buffered saline (PBS), fixed with 4% paraformaldehyde for 30 min and then blocked with 5% normal goat serum (Cell Signaling) and 0.3% Triton X-100 for 1 hr. Primary antibody cocktail (Cell Signaling, rabbit anti-phospho-histone γH2A.X (Ser-139), 1:100; anti-phospho-TP53BP1 (Ser-1778), 1:100) was prepared in PBS with 1% BSA and 0.3% Triton X-100 and incubated overnight at 4° C. Next day, samples were washed with PBS and further incubated with fluorophore-conjugated secondary antibody (1:1,000) for 1 hr in dark. Samples were then washed and incubated with DAPI dye (Life Technologies) (4 μg/ml final concentration) for 30 minutes. Images were collected on the INCell Analyzer 2000 (10× objective) and analyzed with the Developer Toolbox.

[2] = test system: FOXO3; test: FOXO3 siRNA knockdown: dependency for H2O2-resistance; type: cell-based, human
Description: For qPCR analysis, WI-38 cells were treated with small molecules (at 10 μM) (biological quadruplicates) for 24 hrs and processed for RNA isolation and reverse transcription (RT) with the Cells-to-Ct Kit (Life Technologies), following manufacturer's instructions. RT products were diluted with H2O and used for qPCR analysis on an ABI 7300 system (Life Technologies) (technical triplicates). Relative expression levels of target genes were normalized to the genes B2M, PPIA and GAPDH. To knock down the expression of FOXO3 or NRF2, WI-38 cells were transfected, using the RNAiMAX reagents (Life Technologies), with siRNA oligos (at 10 nM final concentration, 10 ml culture medium) for FOXO3 (Life Technologies) or NRF2 (Integrated DNA Technologies) on 10-cm petri dishes for 36 hrs, and then detached and aliquoted onto 96-well (for qPCR analysis) or 384-well plates (for H2O2-stress treatment). ˜24 hrs later, small molecules were introduced and incubated with cells for 24 hrs. Cells were then either processed with the Cells-to-Ct Kit to prepare RT products for qPCR analysis or subjected to H2O2 (700 μM) for 3 hrs and assayed for viability. The knockdown efficiency of FOXO3 or NRF2 was checked at 36 hrs post-transfection and at the end as well. […]
Applicants used siRNA to knock down FOXO3 expression by ˜70% in an attempt to identify whether the activation of these genes depends on activity of FOXO3 and/or NRF2. […] We used siRNA to knock down FOXO3 expression by ˜60% to 70% (FIG. 3; see data in Table 6). […] (Given the caveat that FOXO3 was not fully knocked down, partial dependency was scored when the H2O2-resistance capacity was reduced by at least 25% but less than 50% upon siRNA knockdown). At least for Gr-7A and Gr-7C, which are structurally related, the observed FOXO3-dependency for H2O2-resistance is consistent with their strong effects to induce FOXO3 target genes (Tables 1a-1f, Table 6, & Table 15), including SOD2 and GADD45A.

[3] = test system: C. elegans; test: C. elegans lifespan assays (liquid and plate); type: in vivo, Caenorhabditis elegans; details: for ILS at 60 µM / ILS at 66 µM: Caenorhabditis elegans
[4] = test system: WI-38 cells
[5] = test system: WI-38 cells; test: Long-term effects on cell viability (5 days, ATP; morphology, PI imaging); type: cell-based; details: 10 μM
Description: In addition, cell death was scored by PI-imaging on day 2 and day 5 of treatment.
Applicants introduced molecules (at 10 uM final concentration) to WI-38 fibroblasts and then assayed cell viability (through ATP measurement) everyday, during a course of 5 days of continuous treatment. […] Applicants also examined the morphology and scored cell death (propidium iodide staining) for cells treated with the above molecules. Of these 14 molecules, some appeared to cause cell toxicity. […] Despite the observed long-term toxicity, these molecules are still interesting as they may act as anti-tumor agents in vivo, should they have more pronounced cytotoxicity on highly proliferative tumor cells. When cells were incubated with these molecules for ˜24 hrs and then subject to hydrogen peroxide for 3 hrs, these molecules are all protective. […] Some of these small molecules may be toxic by themselves under certain conditions, but by inducing protective mechanisms, they may trigger “hormesis” and therefore protect cells from oxidative stress.

In the case of `N=C1S/C(=C\c2cn(-c3ccccc3)nc2-c2cccs2)C(=O)N1c1nccs1` [Gr-6C], the activity at 10 µM ([1]; read-out: Experiment 1, H2A.X-P DNA damage foci staining (no H2O2 stress treatment), at 10 uM) is reported as 181%, the activity at 10 µM ([1]; read-out: Experiment 2, H2A.X-P DNA damage foci staining (no H2O2 stress treatment), at 10 uM) is reported as 300% and the activity at 10 µM ([1]; read-out: Experiment 2, H2A.X-P DNA damage foci staining (under H2O2 stress treatment), at 10 uM) is reported as 43%. The activity at 10 µM ([1]; read-out: Experiment 2, TP53BP1-P DNA damage foci staining (no H2O2 stress treatment), at 10 uM) was 290%, the activity at 10 µM ([1]; read-out: Experiment 2, TP53BP1-P DNA damage foci staining (under H2O2 stress treatment), at 10 uM) was 440% and the “P = Potential DNA-damaging” value ([1]; human, 24 h) was 1. The “R = Potential DNA damaging” value ([1]; human, 24 h) was 1, the “I = FOXO3-dependency for H2O2-resistance” value ([2]; score) was 0 and the “I = FOXO3-dependency for H2O2-resistance” value ([2]; summary score) was 0. The ILS at 60 µM ([3]; in liquid, wild type, with FuDR, 1.0 × 10^9 bacteria/ml, read-out: relative change of mean lifespan vs control, Trial 1) was 20.5%, the ILS at 60 µM ([3]; in liquid, wild type, with FuDR, 2.5 × 10^9 bacteria/ml, read-out: relative change of mean lifespan vs control, Trial 2) was 12.4% and the ILS at 60 µM ([3]; on plate, CF512 temperature-sensitive sterile animals, without FuDR, 2.0 × 10^10 bacteria/ml, read-out: relative change of mean lifespan vs control, Trial 3) was 9.4%. For the same compound, the ILS at 66 µM ([3]; Assay 2(z), 1.0 × 10^9 bacteria/ml, wild type + FuDR (2012 July), read-out: Lifespan assay in liquid) was 20.5%, the ILS at 66 µM ([3]; Assay 3(aa), 2.5 × 10^9 bacteria/ml, wild type + FuDR, read-out: Lifespan assay in liquid) was 12.4% and the ILS at 66 µM ([3]; Assay 4(ab), 2.0 × 10^10 bacteria/ml, CF512 worms, no FuDR, read-out: Lifespan assay on plates) was 9.4%. For the same compound, the “Extension of C. elegans' lifespan (qualitative)” value ([3]; in at least 3 to 4 trials, group range ~10% to ~50%) was “could extend animal's lifespan”, the “Trials with lifespan extension” value ([3]; positive of total trials) was 3 of 3 and the “O = Life span- extending scores in worms” value ([3]; score scale 0 to 2, 4 to 6 independent trials) was 2 (2 for observed in more than 2 trials). The “M = Lifespan-extending scores in worms” value ([3]; summary score) was 2 (2 for observed in more than 2 trials), the H2O2-resistant ([4]; WI-38 cells, 10 μM, (*) = compromised ability to protect cells from H2O2, could be due to stability issue) was “YES (*)” and the “No H2O2 stress treatment, at 10 uM (fold change)” value ([4]; WI-38 cells, no H2O2 stress, 10 uM, normalized ATP measurement) was “.096 fold change”. The H2O2-resistant ([4]; asterisks indicate the loss of the ability to protect cells from H2O2 over time) was “YES (*)”, the EC50 ([4]; derived from dose response curves, 0.6-20 uM, H2O2-resistance of WI-38 cells) was 16.2 µM and the EC50 ([4]; read-out: Est. ED50, dose response 0.6-20 μM, H2O2-resistance) was 48.5 µM. For the same compound, the “Luminescence signal for ATP measurement, day-1 Average” value ([5]; Batch 1, day-1, n = 6, day-0 luminescence = 320956 ± 24708) was 435273, the “Luminescence signal for ATP measurement, day-2 Average” value ([5]; Batch 1, day-2, n = 6, day-0 luminescence = 320956 ± 24708) was 542716 and the “Luminescence signal for ATP measurement, day-3 Average” value ([5]; Batch 1, day-3, n = 6, day-0 luminescence = 320956 ± 24708) was 574765. For the same compound, the “Luminescence signal for ATP measurement, day-4 Average” value ([5]; Batch 1, day-4, n = 6, day-0 luminescence = 320956 ± 24708) was 624471, the “Luminescence signal for ATP measurement, day-5 Average” value ([5]; Batch 1, day-5, n = 6, day-0 luminescence = 320956 ± 24708) was 548865 and the viability at 10 µM ([5]; Homo sapiens, WI-38, 120 h, Batch 1, day-5, DMSO ctrl = 100.0%, read-out: ATP luminescence by day-5 normalized) was 53.5%. For the same compound, the “O = Potential toxicity” value ([5]; human, 5 days) was 0 and the “Q = Potential toxicity” value ([5]; human, 5 days) was 1.
